In US20240300937A1, “Substituted 6-(Pyrimidin-4-yl)Quinoline Compounds as Cyclin Dependent Kinase Inhibitors” (BeiGene, Ltd., priority 2022, published 2024):

Experiments:
CDK4/Cyclin D1 = CDK4/Cyclin D1 (Homo sapiens (Human), UniProt P11802); test: CDK4/Cyclin D1 kinase TR-FRET inhibition assay; assay type: biochemical; details: 1 mM ATP, Rb (Ser780)-biotin substrate, read-out: CDK4D1 IC50
Method: (§1) Compounds disclosed herein were tested for inhibition of CDK4/Cyclin D1 or CDK6/Cyclin D3 kinase in an assay based on the time-resolved fluorescence-resonance energy transfer (TR-FRET) methodology. The assay was carried out in 384-well low volume black plates in a reaction mixture containing CDK4/Cyclin D1 or CDK6/Cyclin D3, 1 mM ATP, 0.15 μM Rb (Ser780)-biotin substrate and 0-10 μM compound in buffer containing 50 mM HEPES pH7.0, 0.02% NaN3, 0.01% BSA, 0.1 mM Orthovanadate, 50 mM MgCl2, 1 mM DTT and 0.005% Tween-20. The kinase was incubated with compound for 60 minutes at room temperature and the reaction was initiated by the addition of ATP and Rb (Ser780)-biotin substrate. After reaction at room temperature for 120 minutes, an equal volume of stop/detection solution was added according to the manufacture's instruction (Cisbio Bioassays). The stop/detection solution contained Streptavidin-XL665 and Anti-pRb (Ser780) mAb-Eu Cryptate in Detection buffer (Cisbio Bioassays). Plates were incubated at room temperature for 60 minutes, and the TR-FRET signals (ex337 nm, em665 nm/620 nm) were recorded on a PHERAstar FSX plate reader (BMG Labtech). The inhibition percentage of CDK4/Cyclin D1 or CDK6/Cyclin D3 kinase activity in presence of increasing concentrations of compounds was calculated based on the ratio of fluorescence at 665 nm to that at 620 nm. The IC50 for each compound was derived from fitting the data to the four-parameter logistic equation by Dotmatics.

CDK6/Cyclin D3 = CDK6/Cyclin D3 (Homo sapiens (Human), UniProt Q00534); test: CDK6/Cyclin D3 kinase TR-FRET inhibition assay; assay type: biochemical; details: 1 mM ATP, Rb (Ser780)-biotin substrate, read-out: CDK6D3 IC50
Method: as §1

CDK6/Cyclin D3, sequence (Q00534 whole entry): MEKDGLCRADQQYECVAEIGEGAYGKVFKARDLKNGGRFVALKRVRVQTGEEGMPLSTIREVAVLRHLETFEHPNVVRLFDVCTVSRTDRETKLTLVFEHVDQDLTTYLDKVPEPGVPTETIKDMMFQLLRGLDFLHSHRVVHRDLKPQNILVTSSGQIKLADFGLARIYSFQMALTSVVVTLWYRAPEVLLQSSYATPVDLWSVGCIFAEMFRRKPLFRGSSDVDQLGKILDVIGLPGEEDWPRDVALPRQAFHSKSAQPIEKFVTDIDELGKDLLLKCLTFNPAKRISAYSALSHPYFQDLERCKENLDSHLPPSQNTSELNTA
CDK6/Cyclin D3, sequence (P30281 whole entry partner): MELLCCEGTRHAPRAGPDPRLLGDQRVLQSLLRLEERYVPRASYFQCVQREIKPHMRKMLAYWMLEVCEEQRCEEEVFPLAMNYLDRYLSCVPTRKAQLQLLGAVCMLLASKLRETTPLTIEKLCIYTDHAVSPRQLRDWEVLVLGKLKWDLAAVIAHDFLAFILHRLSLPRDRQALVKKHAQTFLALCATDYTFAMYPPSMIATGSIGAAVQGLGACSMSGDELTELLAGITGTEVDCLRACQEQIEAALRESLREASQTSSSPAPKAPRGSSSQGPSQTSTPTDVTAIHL
CDK4/Cyclin D1, sequence (P11802 whole entry): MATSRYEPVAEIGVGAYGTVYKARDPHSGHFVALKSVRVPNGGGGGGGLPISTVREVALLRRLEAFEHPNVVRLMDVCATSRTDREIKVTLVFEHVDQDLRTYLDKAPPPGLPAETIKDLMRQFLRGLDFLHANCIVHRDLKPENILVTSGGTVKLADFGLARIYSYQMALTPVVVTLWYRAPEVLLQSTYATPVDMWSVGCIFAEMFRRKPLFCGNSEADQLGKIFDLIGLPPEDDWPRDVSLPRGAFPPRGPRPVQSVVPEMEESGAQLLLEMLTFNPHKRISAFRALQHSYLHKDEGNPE
CDK4/Cyclin D1, sequence (P24385 whole entry partner): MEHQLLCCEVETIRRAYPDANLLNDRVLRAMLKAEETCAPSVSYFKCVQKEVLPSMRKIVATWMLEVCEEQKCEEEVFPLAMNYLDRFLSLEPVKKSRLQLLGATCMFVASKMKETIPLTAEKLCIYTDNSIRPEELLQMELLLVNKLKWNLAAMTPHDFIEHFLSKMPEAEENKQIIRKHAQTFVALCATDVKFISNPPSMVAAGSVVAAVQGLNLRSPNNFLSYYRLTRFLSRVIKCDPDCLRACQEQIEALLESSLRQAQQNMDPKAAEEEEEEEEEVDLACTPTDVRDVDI

| IC50 (CDK4/Cyclin D1) | IC50 (CDK6/Cyclin D3) | SMILES |
| --- | --- | --- |
| 23 nM | 828 nM | CC(C)c1c(CNC[C@H]2CCOC2)cnc2ccc(-c3nc(N[C@@H]4CCOC[C@H]4O)ncc3F)cc12 [Example 27, (3S,4R)-4-((5-fluoro-4-(4-isopropyl-3-(((((R)-tetrahydrofuran-3-yl)methyl)amino)methyl)quinolin-6-yl)pyrimidin-2-yl)amino)tetrahydro-2H-pyran-3-ol] |
| 19 nM | 703 nM | CC(C)c1c(CNC2CCCCC2)cnc2ccc(-c3nc(N[C@@H]4CCOC[C@H]4O)ncc3F)cc12 [Example 28] |
| 20 nM | 860 nM | CC(C)c1c(CNC2CCOCC2)cnc2ccc(-c3nc(N[C@@H]4CCOC[C@H]4O)ncc3F)cc12 [Example 29, (3S,4R)-4-((5-fluoro-4-(4-isopropyl-3-(((tetrahydro-2H-pyran-4-yl)amino)methyl)quinolin-6-yl)pyrimidin-2-yl)amino)tetrahydro-2H-pyran-3-ol] |
| 11 nM | 550 nM | CC(C)c1c(CN[C@@H]2CCCOC2)cnc2ccc(-c3nc(N[C@@H]4CCOC[C@H]4O)ncc3F)cc12 [Example 30, (3S,4R)-4-((5-fluoro-4-(4-isopropyl-3-((((R)-tetrahydro-2H-pyran-3-yl)amino)methyl)quinolin-6-yl)pyrimidin-2-yl)amino)tetrahydro-2H-pyran-3-ol] |
| 25 nM | 275 nM | COCc1cnc2ccc(-c3nc(N[C@@H]4CCOC[C@H]4O)ncc3F)cc2c1C(C)C [Example 31, (3S,4R)-4-((5-fluoro-4-(4-isopropyl-3-(methoxymethyl)quinolin-6-yl)pyrimidin-2-yl)amino)tetrahydro-2H-pyran-3-ol] |
| 11 nM | 484 nM | CC(C)c1c(CN[C@H]2CCOC2)cnc2ccc(-c3nc(N[C@@H]4CCOC[C@H]4O)ncc3F)cc12 [Example 32, (3S,4R)-4-((5-fluoro-4-(4-isopropyl-3-((((S)-tetrahydrofuran-3-yl)amino)methyl)quinolin-6-yl)pyrimidin-2-yl)amino)tetrahydro-2H-pyran-3-ol] |
| 22 nM | 792 nM | CC(C)c1c(CNC[C@@H]2CCOC2)cnc2ccc(-c3nc(N[C@@H]4CCOC[C@H]4O)ncc3F)cc12 [Example 33, (3S,4R)-4-((5-fluoro-4-(4-isopropyl-3-(((((S)-tetrahydrofuran-3-yl)methyl)amino)methyl)quinolin-6-yl)pyrimidin-2-yl)amino)tetrahydro-2H-pyran-3-ol] |
| 27 nM | 783 nM | CC(C)c1c(CNC[C@@H]2CCCO2)cnc2ccc(-c3nc(N[C@@H]4CCOC[C@H]4O)ncc3F)cc12 [Example 34, (3S,4R)-4-((5-fluoro-4-(4-isopropyl-3-(((((S)-tetrahydrofuran-2-yl)methyl)amino)methyl)quinolin-6-yl)pyrimidin-2-yl)amino)tetrahydro-2H-pyran-3-ol] |
| 16 nM | 592 nM | CC(C)c1c(CN[C@@H]2CCOC2)cnc2ccc(-c3nc(N[C@@H]4CCOC[C@H]4O)ncc3F)cc12 [Example 35, (3S,4R)-4-((5-fluoro-4-(4-isopropyl-3-((((R)-tetrahydrofuran-3-yl)amino)methyl)quinolin-6-yl)pyrimidin-2-yl)amino)tetrahydro-2H-pyran-3-ol] |
| 14 nM | 224 nM | CC(C)c1c(CN2CCOCC23CC3)cnc2ccc(-c3nc(N[C@@H]4CCOC[C@H]4O)ncc3F)cc12 [Example 36, (3S,4R)-4-((4-(3-((7-oxa-4-azaspiro[2.5]octan-4-yl)methyl)-4-isopropylquinolin-6-yl)-5-fluoropyrimidin-2-yl)amino)tetrahydro-2H-pyran-3-ol] |
| 27 nM | 945 nM | CC(C)c1c(CN[C@H]2CCCOC2)cnc2ccc(-c3nc(N[C@@H]4CCOC[C@H]4O)ncc3F)cc12 [Example 37, (3S,4R)-4-((5-fluoro-4-(4-isopropyl-3-((((S)-tetrahydro-2H-pyran-3-yl)amino)methyl)quinolin-6-yl)pyrimidin-2-yl)amino)tetrahydro-2H-pyran-3-ol] |
| 4.4 nM | 176 nM | CC(C)c1c(CN)cnc2ccc(-c3nc(N[C@@H]4CCOC[C@H]4O)ncc3F)cc12 [Example 38, (3S,4R)-4-((4-(3-(aminomethyl)-4-isopropylquinolin-6-yl)-5-fluoropyrimidin-2-yl)amino)tetrahydro-2H-pyran-3-ol] |
| 25 nM | 750 nM | CC(C)c1c(CN[C@H]2CCOC2)cnc2ccc(-c3nc(N[C@@H]4CCOC[C@H]4O)ncc3F)cc12 [Example 39, (3S,4R)-4-((5-fluoro-4-(4-isopropyl-3-((((S)-tetrahydrofuran-3-yl)amino)methyl)quinolin-6-yl)pyrimidin-2-yl)amino)tetrahydro-2H-pyran-3-ol] |
| 33 nM | 759 nM | CC(C)c1c(CN[C@@H]2CCOC2)cnc2ccc(-c3nc(N[C@@H]4CCOC[C@H]4O)ncc3F)cc12 [Example 40, (3S,4R)-4-((5-fluoro-4-(4-isopropyl-3-((((R)-tetrahydrofuran-3-yl)amino)methyl)quinolin-6-yl)pyrimidin-2-yl)amino)tetrahydro-2H-pyran-3-ol] |
| 10 nM | 170 nM | CC(C)c1c([C@H](C)O)cnc2ccc(-c3nc(N[C@@H]4CCOC[C@H]4O)ncc3F)cc12 [Example 41, (3S,4R)-4-((5-fluoro-4-(3-((S)-1-hydroxyethyl)-4-isopropylquinolin-6-yl)pyrimidin-2-yl)amino)tetrahydro-2H-pyran-3-ol] |
| 32 nM | 480 nM | CC(C)c1c([C@@H](C)O)cnc2ccc(-c3nc(N[C@@H]4CCOC[C@H]4O)ncc3F)cc12 [Example 42, (3S,4R)-4-((5-fluoro-4-(3-((R)-1-hydroxyethyl)-4-isopropylquinolin-6-yl)pyrimidin-2-yl)amino)tetrahydro-2H-pyran-3-ol] |
| 41 nM | 533 nM | CC(C)c1c(CNc2cnn(C)c2)cnc2ccc(-c3nc(N[C@@H]4CCOC[C@H]4O)ncc3F)cc12 [Example 43, (3S,4R)-4-((5-fluoro-4-(4-isopropyl-3-(((1-methyl-1H-pyrazol-4-yl)amino)methyl)quinolin-6-yl)pyrimidin-2-yl)amino)tetrahydro-2H-pyran-3-ol] |
| 25 nM | 475 nM | CC(C)c1c(CN2CCCOCC2)cnc2ccc(-c3nc(N[C@@H]4CCOC[C@H]4O)ncc3F)cc12 [Example 44, (3S,4R)-4-((4-(3-((1,4-oxazepan-4-yl)methyl)-4-isopropylquinolin-6-yl)-5-fluoropyrimidin-2-yl)amino)tetrahydro-2H-pyran-3-ol] |
| 22 nM | 286 nM | CC(C)c1c(CNc2ncccn2)cnc2ccc(-c3nc(N[C@@H]4CCOC[C@H]4O)ncc3F)cc12 [Example 45, (3S,4R)-4-((5-fluoro-4-(4-isopropyl-3-((pyrimidin-2-ylamino)methyl)quinolin-6-yl)pyrimidin-2-yl)amino)tetrahydro-2H-pyran-3-ol] |
| 65 nM | 1040 nM | COc1ccc(NCc2cnc3ccc(-c4nc(N[C@@H]5CCOC[C@H]5O)ncc4F)cc3c2C(C)C)cc1 [Example 46, (3S,4R)-4-((5-fluoro-4-(4-isopropyl-3-(((4-methoxyphenyl)amino)methyl)quinolin-6-yl)pyrimidin-2-yl)amino)tetrahydro-2H-pyran-3-ol] |
| 25 nM | 250 nM | CC(C)c1c([C@H](C)N2CC[C@@H](F)C2)cnc2ccc(-c3nc(N[C@@H]4CCOC[C@H]4O)ncc3F)cc12 [Example 47, (3S,4R)-4-((5-fluoro-4-(3-((S)-1-((R)-3-fluoropyrrolidin-1-yl)ethyl)-4-isopropylquinolin-6-yl)pyrimidin-2-yl)amino)tetrahydro-2H-pyran-3-ol] |
| 21 nM | 756 nM | CC(C)c1c([C@@H](C)N2CC[C@@H](F)C2)cnc2ccc(-c3nc(N[C@@H]4CCOC[C@H]4O)ncc3F)cc12 [Example 48, (3S,4R)-4-((5-fluoro-4-(3-((R)-1-((R)-3-fluoropyrrolidin-1-yl)ethyl)-4-isopropylquinolin-6-yl)pyrimidin-2-yl)amino)tetrahydro-2H-pyran-3-ol] |
| 14 nM | 392 nM | CC(C)c1c(CN2C[C@H]3C[C@@H]2CO3)cnc2ccc(-c3nc(N[C@@H]4CCOC[C@H]4O)ncc3F)cc12 [Example 49, (3S,4R)-4-((4-(3-(((1R,4R)-2-oxa-5-azabicyclo[2.2.1]heptan-5-yl)methyl)-4-isopropylquinolin-6-yl)-5-fluoropyrimidin-2-yl)amino)tetrahydro-2H-pyran-3-ol] |
| 4.4 nM | 185 nM | CC(C)c1c(C2(O)CCCC2)cnc2ccc(-c3nc(N[C@@H]4CCOC[C@H]4O)ncc3F)cc12 [Example 50, (3S,4R)-4-((5-fluoro-4-(3-(1-hydroxycyclopentyl)-4-isopropylquinolin-6-yl)pyrimidin-2-yl)amino)tetrahydro-2H-pyran-3-ol] |
